# Reference: patent publication US20180044428A1, “COMPOSITIONS AND METHODS FOR ENHANCING THE EFFICACY OF CANCER THERAPY” (PROVIDENCE HEALTH & SERVICES-OREGON, priority 2015, published 2018)
# Legend:
# Assay type in all cases: in vivo, C57BL/6 mice
# Panc02 tumors = assay: Panc02 pancreatic adenocarcinoma model, immunochemotherapy (tumor area, survival); settings: gemcitabine 100 mg/kg i.p. twice weekly alone
# Procedure: The Panc02 murine pancreatic adenocarcinoma cell line (Priebe et al., 1992, Cancer Chemother Pharmacol; 29:485-9. C57BL/6) was kindly provided by Dr. Woo (Mount Sinai School of Medicine, N.Y.). 6-8 week old C57BL/6 mice were obtained from Charles River Laboratories (Wilmington, Mass.) for use in these experiments. All animal protocols were approved by the EACRI IACUC (Animal Welfare Assurance No. A3913-01).
# Mice bearing 10-14 day old tumors were treated with anti-OX40 (OX86, 250 μg intraperitoneally, BioXcell, West Lebanon, N.H.), anti-CTLA4 (9D9, 250 μg intraperitoneally, BioXcell) or the combination. Chemotherapy consisted of 100 mg/kg Gemcitabine (Eli Lilly and Co., Indianapolis, Ind.) intraperitoneally twice per week for 2 or 3 weeks. Anti-interleukin-4 (Anti-IL-4, 11B11, 100 μg intraperitoneally, BioXcell) was delivered intraperitoneally twice per week for 3 weeks.
# Data were analyzed and graphed using Prism (GraphPad Software, La Jolla, Calif.). Individual data sets were compared using Student's T-test. Analysis across multiple groups was performed using ANOVA with individual groups assessed using Tukey's comparison. Kaplan Meier survival curves were compared using a log-rank test.
# [1] = test system: peripheral blood immune cells; assay: Quantitative flow cytometry of peripheral blood after immunochemotherapy
# Procedure: For analysis of tumor-infiltrating cells, the tumor was dissected into approximately 2 mm fragments followed by agitation in lmg/mL collagenase (Invitrogen), 100μg/mL hyaluronidase (Sigma, St Louis, Mo.), and 20 mg/mL DNase (Sigma) in PBS for 1 hour at room temperature. The digest was filtered through 100 μm nylon mesh to remove macroscopic debris. For flow cytometry analysis of infiltrating cells, cell suspensions were washed and stained with directly conjugated fluorescent antibodies. For analysis of lymph nodes, lymph nodes were crushed, washed and surface stained, then cells were washed and fixed using a T regulatory cell staining kit (EBioscience) and stained for transcription factors. To measure cytokine responses, lymph node cells were plated to wells pre-coated with 1 μg/ml anti-CD3 for 4 hours in the presence of Golgiplug (BD biosciences). Cells were then surface stained, washed and fixed using a T regulatory cell staining kit (EBioscience) before intracellular cytokine staining. For analysis of cell numbers in blood, whole blood was harvested into ethylenediaminetetraacetic acid (EDTA) tubes from live mice via the saphenous vein, and 5-25 μl of fresh blood was stained directly with fluorescent antibody cocktails (see, Crittenden et al., PLoS One, 2013. 8(7): e69527). A known number of AccuCheck fluorescent beads (Invitrogen) were added to each sample, then red blood cells were lysed with Cal-Lyse whole blood lysing solution (Invitrogen), and samples analyzed on a BD LSRII flow cytometer. The absolute number of cells in the sample was determined based on comparing cellular events to bead events (cells/μl).
# F4/80+ macrophages = assay: Immunohistology for F4/80+ macrophages in Panc02 tumors; settings: gemcitabine, tumors harvested after one week of treatment
# Procedure: For immunohistology, tumors were fixed overnight in Z7 zinc based fixative (Lykidis et al., 2007, Nucleic acids research; 35:e85). Tissue was then dehydrated through graded alcohol to xylene, incubated in molten paraffin, and then buried in paraffin. Sections (5 μm) were cut and mounted for analysis. Tissue sections were boiled in ethylenediaminetetraacetic acid (EDTA) buffer as appropriate for antigen retrieval. Primary antibody binding was visualized with AlexaFluor 488 conjugated secondary antibodies (Molecular Probes, Eugene, Oreg.) and mounted with DAPI (Invitrogen) to stain nuclear material. Images were acquired using: a Nikon TE2000S epifluorescence microscope, Nikon DsFi1 digital camera and Nikon NIS-Elements imaging software. Multiple images were taken at high resolution across the tumor and digitally merged to make a single margin-to-margin overview of the tumor.
# [2] = following one cycle of chemoimmunotherapy
structure (smiles),measurement,setting,value
Nc1ccn([C@@H]2O[C@H](CO)[C@@H](O)C2(F)F)c(=O)n1 [gemcitabine],survival,Panc02 tumors,significantly extended survival
same,tumor growth,Panc02 tumors,transient tumor delay
same,T cell populations in peripheral blood,[1]; following chemotherapy,not decreased
same,CD11b+Gr1hi neutrophils in the peripheral blood,[1]; [2],significantly decreased
same,CD11b+Ly6C+Ly6Glo immature myeloid cells in the peripheral blood,[1]; [2],significantly decreased
same,macrophage infiltration throughout the tumor,F4/80+ macrophages,increased
